Experimental data taken from paper PMC11642016 (International Journal of Molecular Sciences, 2024).
Where “and” joins values, the source holds several entries; their conditions need not be identical. Identical values can stand only once. Like-named read-outs stand apart in the source and are kept apart here.

How the values were obtained:
[1] = system: PANC-1, Fadu, A2058 and EBC-1 cell lines; set-up: method as in PMID 35455465; conditions: 10 µM; cited from earlier work
[2] = CellTiter-Glo luminescent cell viability assay, primary fibroblasts; conditions: human, primary skin fibroblasts (non-tumorous), Primer fibroblast Cell viability (% of controll), 72 h, dose–response, individual replicates
Description: (§1) Primary fibroblast cultures were prepared from human skin biopsies and maintained in DMEM supplemented with 10% FBS, 1% penicillin-streptomycin, and 1% MEM Non-Essential Amino Acids Solution (Thermo Fisher Scientific). […] All cell lines were cultured in a humidified atmosphere at 37 °C and 5% CO2, passaged twice a week, and the experiments were performed on cells between passage 5 and 15. The cell lines were routinely screened for the absence of mycoplasma infection (DAPI staining).
(§2) The effects of the synthesized compounds on cell viability were measured using the CellTiter-Glo® luminescent cell viability assay (Promega, Madison, WI, USA), according to the manufacturer’s instructions. Briefly, cells were seeded onto a flat-bottomed, white 96-well plate (BRANDplates, cat. no.: 781965)), with the following densities: PANC-1: 750 cells/well, Fadu: 2000 cells/well, primary fibroblasts: 2000 cells/well, HEK293T WT: 1000 cells/well, HEK293T CLPP^−/−: 2500 cells/well. After seeding, cells were incubated for a further 48 h before treatment. Cells were treated with the compounds for 72 h. Three concentrations (25.0 µM; 8.3 µM; 2.8 µM) were applied during the initial cell viability screening, while for the determination of dose–response curves, 1.5-fold serially diluted compound concentrations were applied (range: 26 µM–0.7 µM). After treatment, the luminescence signal was recorded using a microplate reader (BioTek Synergy 2 Multi-Mode Reader, BioTek, Winooski, VT, USA).
(§3) Data analysis was performed using GraphPad Prism 9.5.0 software (GraphPad Software, San Diego, CA, USA). […] The dose–response curves were generated by four-parameter nonlinear regression, and the IC50 values were determined as the means ± SEM of the best-fit values of 3 independent measurements. The R^2 values were consistently above 0.93, indicating a strong fit of the model to the experimental data (Supplementary S.89). […] Dunnett’s post hoc test was applied to adjust for multiple comparisons, minimizing the likelihood of false positive results. Assumptions for ANOVA, including normality (assessed via QQ plots) and homogeneity of variance (tested using the Brown–Forsythe test), were verified. The following significance levels were applied: * p < 0.05, ** p < 0.01, *** p < 0.001, **** p < 0.0001. […] The tumor selectivity of the compounds was quantitatively characterized by the selectivity index (SI). This parameter was calculated as the ratio of the average best-fit IC50 value for primary fibroblasts and the best-fit IC50 value for the corresponding tumor cells (PANC-1 or Fadu).

[3] = system: non-tumorous primary fibroblast cells; assay: as above; conditions: for Primer fibroblast Cell viability (% of controll): dose–response, individual replicates
Description: as §1, §2, §3

Fadu cells = assay: CellTiter-Glo luminescent cell viability assay, Fadu; conditions: for viability at 2.8 µM: read-out: Cell Viability (% of Control) 2.8 µM, Fadu; for viability at 2.8 µM / viability at 8.3 µM / viability at 25 µM: mean ± SD, n = 2; for viability at 8.3 µM: read-out: Cell Viability (% of Control) 8.3 µM, Fadu; for viability at 25 µM: read-out: Cell Viability (% of Control) 25 µM, Fadu
PANC-1 and Fadu cells = assay: CellTiter-Glo viability, statements covering both cancer cell lines; format: cell-based, human; conditions: Homo sapiens; 25 µM; in either of the cancer cell lines; read-out: drop in viability at 25 µM
Description: The effects of the synthesized compounds on cell viability were measured using the CellTiter-Glo® luminescent cell viability assay (Promega, Madison, WI, USA), according to the manufacturer’s instructions. […] After seeding, cells were incubated for a further 48 h before treatment. Cells were treated with the compounds for 72 h. […] After treatment, the luminescence signal was recorded using a microplate reader (BioTek Synergy 2 Multi-Mode Reader, BioTek, Winooski, VT, USA).

PANC-1 cells = assay: CellTiter-Glo luminescent cell viability assay, PANC-1; conditions: for viability at 2.8 µM: read-out: Cell Viability (% of Control) 2.8 µM, PANC-1; for viability at 2.8 µM / viability at 8.3 µM / viability at 25 µM: mean ± SD, n = 2; for viability at 8.3 µM: read-out: Cell Viability (% of Control) 8.3 µM, PANC-1; for viability at 25 µM: read-out: Cell Viability (% of Control) 25 µM, PANC-1
[4] = 1 μM, 72 h, dose–response, individual replicates
[5] = 1.5 μM, 72 h, dose–response, individual replicates
[6] = 2.3 μM, 72 h, dose–response, individual replicates
[7] = 3.4 μM, 72 h, dose–response, individual replicates
[8] = 5.1 μM, 72 h, dose–response, individual replicates
[9] = 7.7 μM, 72 h, dose–response, individual replicates
[10] = 17.3 μM, 72 h, dose–response, individual replicates
[11] = 26 μM, 72 h, dose–response, individual replicates
[12] = Homo sapiens, FaDu, 72 h, 72 h, first-set screening
[13] = Homo sapiens, FaDu, 72 h, 72 h, second-set screening
[14] = Homo sapiens, PANC-1, 72 h, 72 h, first-set screening
[15] = Homo sapiens, PANC-1, 72 h, 72 h, second-set screening

- IC50 (PANC-1 cells; Homo sapiens, PANC-1, 72 h, read-out: IC50 Value ± SEM PANC-1, 72 h treatment, best-fit values, n = 3): 8.2 ± 0.41 µM
- IC50 (PANC-1 cells; Homo sapiens, PANC-1, read-out: PANC-1 IC50 values, Mean, mean of independently fitted replicate IC50 values (Supplement S.6)): 8.19 µM
- IC50 (PANC-1 cells; Homo sapiens, PANC-1, read-out: PANC-1 IC50 values, individual replicates n1-n3, IC50 independently determined for each replicate measurement (Supplement S.6)): 8.43 µM
- IC50 (PANC-1 cells; read-out: PANC-1 IC50 values, individual replicates n1-n3, IC50 independently determined for each replicate measurement (Supplement S.6)): 7.99 µM and 8.15 µM
Compound: NCC#Cc1ccc(CN2C(=O)C3=C(CCN(Cc4ccc(-n5cc(-c6ccccc6)nn5)cc4)C3)N3CCN=C23)cc1 [I/B, reference compound]
- viable cells after treatment in colony formation assays [1]: no viable cells could be observed
- viability at 72 h, 0.7 µM ([2]; 0.7 μM): 93%
- viability at 72 h, 1 µM ([2]; 1 μM): 99%
- viability at 72 h, 1.5 µM ([2]; 1.5 μM): 105%
- viability at 72 h, 2.3 µM ([2]; 2.3 μM): 100%
- viability at 72 h, 3.4 µM ([2]; 3.4 μM): 101%
- viability at 72 h, 5.1 µM ([2]; 5.1 μM): 104%
- viability at 72 h, 7.7 µM ([2]; 7.7 μM): 92%
- viability at 72 h, 17.3 µM ([2]; 17.3 μM): 0%
- viability at 72 h, 26 µM ([2]; 26 μM): 0%
- Primer fibroblast Cell viability (% of controll) ([3]; 0.7 μM, 72 h): 98 % of controll and 97 % of controll
- Primer fibroblast Cell viability (% of controll) ([3]; 1.5 μM, 72 h): 108 % of controll and 98 % of controll
- Primer fibroblast Cell viability (% of controll) ([3]; 2.3 μM, 72 h): 107 % of controll and 98 % of controll
- Primer fibroblast Cell viability (% of controll) ([3]; 3.4 μM, 72 h): 109 % of controll and 98 % of controll
- Primer fibroblast Cell viability (% of controll) ([3]; 5.1 μM, 72 h): 110 % of controll and 98 % of controll
- Primer fibroblast Cell viability (% of controll) ([3]; 7.7 μM, 72 h): 107 % of controll
- Primer fibroblast Cell viability (% of controll) ([3]; 17.3 μM, 72 h): 0 % of controll
- Primer fibroblast Cell viability (% of controll) ([3]; 26 μM, 72 h): 0 % of controll
- IC50 ([3]; Homo sapiens, Fibroblast, 72 h, read-out: IC50 Value ± SEM Primary Fibroblast, 72 h treatment, best-fit values, n = 3): 11 ± 0.65 µM
- IC50 ([3]; Homo sapiens, Fibroblast, read-out: Primary fibroblast IC50 values, Mean, mean of independently fitted replicate IC50 values (Supplement S.6), ONC201 value mathematically estimated from inflection point): 11.2 µM
- IC50 ([3]; Homo sapiens, Fibroblast, read-out: Primary fibroblast IC50 values, individual replicates n1-n3, IC50 independently determined for each replicate (Supplement S.6), ONC201 value mathematically estimated from inflection point, viability stayed above 50%): 11.1 µM
- IC50 ([3]; read-out: Primary fibroblast IC50 values, individual replicates n1-n3, IC50 independently determined for each replicate (Supplement S.6), ONC201 value mathematically estimated from inflection point, viability stayed above 50%): 11.1 µM and 11.4 µM
- Fadu Cell viability (% of controll) (Fadu cells; [4]): 116 % of controll
- Fadu Cell viability (% of controll) (Fadu cells; [5]): 108 % of controll and 114 % of controll
- Fadu Cell viability (% of controll) (Fadu cells; [6]): 112 % of controll
- Fadu Cell viability (% of controll) (Fadu cells; [7]): 112 % of controll
- Fadu Cell viability (% of controll) (Fadu cells; [8]): 107 % of controll
- Fadu Cell viability (% of controll) (Fadu cells; [9]): 100 % of controll and 97 % of controll
- Fadu Cell viability (% of controll) (Fadu cells; [10]): 0 % of controll
- Fadu Cell viability (% of controll) (Fadu cells; [11]): 0 % of controll
- viability at 2.8 µM (Fadu cells; [12]): 112 ± 7%
- viability at 2.8 µM (Fadu cells; [13]): 112 ± 7%
- viability at 8.3 µM (Fadu cells; [12]): 103 ± 6%
- viability at 8.3 µM (Fadu cells; [13]): 103 ± 6%
- viability at 25 µM (Fadu cells; [12]): 0%
- viability at 25 µM (Fadu cells; [13]): 0%
- viability at 0.7 µM (Fadu cells; Homo sapiens, FaDu, 72 h, read-out: Fadu Cell viability (% of controll), 0.7 μM, 72 h, dose–response, individual replicates): 106%
- viability at 1 µM (Fadu cells; Homo sapiens, FaDu, 72 h, read-out: Fadu Cell viability (% of controll), 1 μM, 72 h, dose–response, individual replicates): 112%
- viability at 1.5 µM (Fadu cells; Homo sapiens, FaDu, 72 h, read-out: Fadu Cell viability (% of controll), 1.5 μM, 72 h, dose–response, individual replicates): 109%
- viability at 2.3 µM (Fadu cells; Homo sapiens, FaDu, 72 h, read-out: Fadu Cell viability (% of controll), 2.3 μM, 72 h, dose–response, individual replicates): 110%
- viability at 3.4 µM (Fadu cells; Homo sapiens, FaDu, 72 h, read-out: Fadu Cell viability (% of controll), 3.4 μM, 72 h, dose–response, individual replicates): 105%
- viability at 5.1 µM (Fadu cells; Homo sapiens, FaDu, 72 h, read-out: Fadu Cell viability (% of controll), 5.1 μM, 72 h, dose–response, individual replicates): 104%
- viability at 7.7 µM (Fadu cells; Homo sapiens, FaDu, 72 h, read-out: Fadu Cell viability (% of controll), 7.7 μM, 72 h, dose–response, individual replicates): 93%
- viability at 17.3 µM (Fadu cells; Homo sapiens, FaDu, 72 h, read-out: Fadu Cell viability (% of controll), 17.3 μM, 72 h, dose–response, individual replicates): 0%
- viability at 26 µM (Fadu cells; Homo sapiens, FaDu, 72 h, read-out: Fadu Cell viability (% of controll), 26 μM, 72 h, dose–response, individual replicates): 0%
- IC50 (Fadu cells; Homo sapiens, FaDu, 72 h, read-out: IC50 Value ± SEM Fadu, 72 h treatment, best-fit values, n = 3): 10.3 ± 0.17 µM
- IC50 (Fadu cells; Homo sapiens, FaDu, read-out: Fadu IC50 values, Mean, mean of independently fitted replicate IC50 values (Supplement S.6)): 10.4 µM
- IC50 (Fadu cells; Homo sapiens, FaDu, read-out: Fadu IC50 values, individual replicates n1-n3, IC50 independently determined for each replicate measurement (Supplement S.6)): 11 µM
- Selectivity Index (SI) Fibroblast/Fadu (Fadu cells; ratio of mean best-fit IC50 for primary fibroblasts and best-fit IC50 for Fadu): 1.1
- IC50 (Fadu cells; read-out: Fadu IC50 values, individual replicates n1-n3, IC50 independently determined for each replicate measurement (Supplement S.6)): 9.91 µM and 10.2 µM
- viability at 25 µM (PANC-1 and Fadu cells): 0 to 1%
- PANC-1 Cell viability (% of controll) (PANC-1 cells; 0.7 μM, 72 h, dose–response, individual replicates): 106 % of controll and 104 % of controll
- PANC-1 Cell viability (% of controll) (PANC-1 cells; [4]): 106 % of controll and 107 % of controll
- PANC-1 Cell viability (% of controll) (PANC-1 cells; [5]): 111 % of controll
- PANC-1 Cell viability (% of controll) (PANC-1 cells; [6]): 113 % of controll
- PANC-1 Cell viability (% of controll) (PANC-1 cells; [7]): 113 % of controll
- PANC-1 Cell viability (% of controll) (PANC-1 cells; [8]): 109 % of controll and 116 % of controll
- PANC-1 Cell viability (% of controll) (PANC-1 cells; [9]): 72 % of controll and 90 % of controll
- PANC-1 Cell viability (% of controll) (PANC-1 cells; [10]): 0 % of controll
- PANC-1 Cell viability (% of controll) (PANC-1 cells; [11]): 0 % of controll
- viability at 2.8 µM (PANC-1 cells; [14]): 113 ± 4%
- viability at 2.8 µM (PANC-1 cells; [15]): 113 ± 4%
- viability at 8.3 µM (PANC-1 cells; [14]): 61 ± 22%
- viability at 8.3 µM (PANC-1 cells; [15]): 61 ± 22%
- viability at 25 µM (PANC-1 cells; [14]): 0%
- viability at 25 µM (PANC-1 cells; [15]): 0%
- viability at 0.7 µM (PANC-1 cells; Homo sapiens, PANC-1, 72 h, read-out: PANC-1 Cell viability (% of controll), 0.7 μM, 72 h, dose–response, individual replicates): 102%
- viability at 1 µM (PANC-1 cells; Homo sapiens, PANC-1, 72 h, read-out: PANC-1 Cell viability (% of controll), 1 μM, 72 h, dose–response, individual replicates): 111%
- viability at 1.5 µM (PANC-1 cells; Homo sapiens, PANC-1, 72 h, read-out: PANC-1 Cell viability (% of controll), 1.5 μM, 72 h, dose–response, individual replicates): 111%
- viability at 2.3 µM (PANC-1 cells; Homo sapiens, PANC-1, 72 h, read-out: PANC-1 Cell viability (% of controll), 2.3 μM, 72 h, dose–response, individual replicates): 112%
- viability at 3.4 µM (PANC-1 cells; Homo sapiens, PANC-1, 72 h, read-out: PANC-1 Cell viability (% of controll), 3.4 μM, 72 h, dose–response, individual replicates): 108%
- viability at 5.1 µM (PANC-1 cells; Homo sapiens, PANC-1, 72 h, read-out: PANC-1 Cell viability (% of controll), 5.1 μM, 72 h, dose–response, individual replicates): 112%
- viability at 7.7 µM (PANC-1 cells; Homo sapiens, PANC-1, 72 h, read-out: PANC-1 Cell viability (% of controll), 7.7 μM, 72 h, dose–response, individual replicates): 72%
- viability at 17.3 µM (PANC-1 cells; Homo sapiens, PANC-1, 72 h, read-out: PANC-1 Cell viability (% of controll), 17.3 μM, 72 h, dose–response, individual replicates): 0%
- viability at 26 µM (PANC-1 cells; Homo sapiens, PANC-1, 72 h, read-out: PANC-1 Cell viability (% of controll), 26 μM, 72 h, dose–response, individual replicates): 0%
- Selectivity Index (SI) Fibroblast/PANC-1 (PANC-1 cells; ratio of mean best-fit IC50 for primary fibroblasts and best-fit IC50 for PANC-1): 1.3
